In US20250163119A1, “COMPOUNDS FOR THE TREATMENT OF DIABETES OR OBESITY” (Eli Lilly and Company, priority 2023, published 2025):
“And” between values parts separate entries of the source, which are not always exact repeats. Identical values can stand only once. Like-named read-outs stand apart in the source and are kept apart here. Values belong to the molecule of their own block, whether it stands above or below them. *1 amine or outer side, *2 acyl side, *3 side chain or, on linkers, in order; H or OH if unused. Where a SMILES comes first, the peptide text is derived from it. Where no end group is shown, it is not given here. Side-chain parts run from the residue outwards. [ ]: non-standard residue; d: D form. The star is where a group is joined. C20 diacid = O=C(O)CCCCCCCCCCCCCCCCCCC(=O)*; γGlu = O=C(O)[C@H](CCC(=O)[*:2])N[*:1]; εLys = N[C@@H](CCCCN[*:1])C(=O)[*:2]; NMeI = CC[C@H](C)[C@H](NC)C(=O)O; pGlu = O=C1CC[C@@H](C(=O)O)N1; αMeL = CC(C)C[C@](C)(N)C(=O)O; AEEA = NCCOCCOCC(=O)O; Aib = CC(C)(N)C(=O)O

How the values were obtained:
[1] = Pharmacokinetics in Sprague Dawley rats, single subcutaneous or intravenous dose (incl. 10, 30, 100 nmol/kg dose response); type: in vivo
[2] = target: T1, human CRHR2 (Homo sapiens, UniProt Q13324); experiment: Human CRHR2 cAMP assay (HTRF) in HEK293 cells stably expressing human CRHR2; type: cell-based; conditions: HEK293 cells overexpressing human CRHR2; relative EC50, maximum 10 nM human UCN2; mean ± SE; read-out: hCRHR2 cAMP EC50 (pM, ± SE)
T1 construct: expressed in transfected cells
T1 sequence (Q13324 1-438 isoform Q13324-2): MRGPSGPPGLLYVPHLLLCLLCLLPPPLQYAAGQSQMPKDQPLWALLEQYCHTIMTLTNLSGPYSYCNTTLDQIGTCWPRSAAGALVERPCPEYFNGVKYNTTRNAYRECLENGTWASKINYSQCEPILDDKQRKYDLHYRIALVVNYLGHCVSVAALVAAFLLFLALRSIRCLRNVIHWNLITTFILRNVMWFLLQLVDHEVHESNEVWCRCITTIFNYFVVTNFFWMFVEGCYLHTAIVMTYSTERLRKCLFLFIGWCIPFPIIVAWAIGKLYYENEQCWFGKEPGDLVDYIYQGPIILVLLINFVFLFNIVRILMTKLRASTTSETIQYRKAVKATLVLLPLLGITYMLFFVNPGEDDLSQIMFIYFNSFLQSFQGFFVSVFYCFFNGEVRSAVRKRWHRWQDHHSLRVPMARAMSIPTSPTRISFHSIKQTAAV
Procedure, shortened: (§1)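 Stably expressing HEK293 clones received peptide concentration series in phosphodiesterase-inhibited buffer (0.25 mM IBMX, pH 7.4). After receptor-specific incubation (CRHR1 1 h at 37° C; CRHR2 30 min at room temperature), cells were lysed with HTRF cAMP reagents for 60 min and the 665/620 nm ratio recorded.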

[3] = target: T2, human CRHR1 (Homo sapiens, UniProt P34998); experiment: Human CRHR1 cAMP assay (HTRF) in HEK293 cells stably expressing human CRHR1; type: cell-based; conditions: HEK293 cells overexpressing human CRHR1; relative EC50, maximum 66 nM human UCN1; mean ± SE; read-out: hCRHR1 cAMP EC50 (pM, ± SE)
T2 construct: expressed in transfected cells
T2 sequence (P34998 24-415): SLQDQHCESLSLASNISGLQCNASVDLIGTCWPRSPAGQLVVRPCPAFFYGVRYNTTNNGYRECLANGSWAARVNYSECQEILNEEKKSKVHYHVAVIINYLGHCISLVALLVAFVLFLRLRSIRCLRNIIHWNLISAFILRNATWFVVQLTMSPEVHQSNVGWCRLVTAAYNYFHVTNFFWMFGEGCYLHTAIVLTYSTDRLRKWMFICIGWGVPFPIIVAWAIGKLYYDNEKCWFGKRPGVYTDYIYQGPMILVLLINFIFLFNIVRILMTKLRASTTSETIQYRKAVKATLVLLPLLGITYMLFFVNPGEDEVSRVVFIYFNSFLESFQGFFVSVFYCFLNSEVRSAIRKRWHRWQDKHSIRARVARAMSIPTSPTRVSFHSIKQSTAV
Procedure, shortened: as §1

[4] = test system: MHC-II presented peptides on human dendritic cells; experiment: MAPPS assay (MHC-Associated Peptide Proteomics); type: cell-based
Experimental: MAPPS profiles the MHC-II presented peptides on human dendritic cells treated with tested molecules. CD14+ cells, isolated from the PBMCs of normal human donors, were cultured and differentiated into immature DCs by incubation with IL-4 and GM-CSF. On day 4, culture media was replaced with fresh media containing tested molecules. On day 5, LPS was added to transform the cells into mature DCs. On day 6, cells were lysed in RIPA buffer with protease inhibitors. Immunoprecipitation of MHC-II complexes were performed using biotinylated anti-MHC-II antibody coupled to streptavidin beads. The bound complex was eluted and filtered. The isolated MHC-II peptides were analyzed by a mass spectrometer. Peptide identifications were generated by an internal proteomics pipeline using search algorithms with no enzyme and a bovine/human database with test sequences appended to the database. A KNIME workflow was used to process the identification files from the samples. Peptides identified from the test articles were aligned against the parent sequence of the test molecule. The output was used to determine the percentage of donors displaying MHC-II peptides from regions of the test molecule. Polypeptides comprising SEQ ID NOs:54, 49, 50, 29, 41, 45, 1, 22, 25 were tested in the MAPPs assay. […] Depending on the donors, up to three major clusters were observed, each slightly shifted from the others, altogether spanning residues 1-33.

[5] = target: T3, human corticotropin-releasing hormone receptor 1 (CRHR1) (human, UniProt P34998 24-415); experiment: cell-based or functional assay
T3 sequence (looked up): T2 sequence (P34998 24-415)

[6] = target: rat CRHR2 (endogenous on A7r5 cells) (rat, UniProt P47866 20-411); experiment: cell-based or functional assay
Chain of rat CRHR2 (endogenous on A7r5 cells) (P47866 20-411): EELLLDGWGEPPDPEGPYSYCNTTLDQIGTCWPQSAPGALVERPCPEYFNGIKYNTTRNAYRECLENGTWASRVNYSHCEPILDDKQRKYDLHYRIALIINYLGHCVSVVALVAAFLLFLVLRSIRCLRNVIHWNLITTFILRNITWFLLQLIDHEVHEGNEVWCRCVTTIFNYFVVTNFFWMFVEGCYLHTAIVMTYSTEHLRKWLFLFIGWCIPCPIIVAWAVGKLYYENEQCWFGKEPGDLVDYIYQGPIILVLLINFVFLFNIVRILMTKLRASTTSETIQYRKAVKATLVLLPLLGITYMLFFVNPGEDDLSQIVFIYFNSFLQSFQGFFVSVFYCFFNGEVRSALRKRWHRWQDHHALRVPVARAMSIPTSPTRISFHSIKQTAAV

[7] = target: T3, human corticotropin-releasing hormone …; experiment: cell-based or functional assay; remark: listed apart in the source
[8] = male, Sprague Dawley, rat, plasma, iv, 196 nmol/kg, single intravenous dose 196 nmol/kg, individual animal
[9] = male, Sprague Dawley, rat, plasma, iv, 196 nmol/kg, single intravenous dose 196 nmol/kg, mean
[10] = single intravenous dose 196 nmol/kg, male Sprague Dawley rats, individual animal
[11] = single subcutaneous dose 196 nmol/kg, male Sprague Dawley rats, individual animal

clearance [1, 8]: 2.4 mL/h/kg | half-life [1, 8]: 36.1 h | clearance [1, 9]: 2.43 mL/h/kg | half-life [1, 9]: 39.3 h | half-life ([1]; male, Sprague Dawley, rat, plasma, sc, 196 nmol/kg, single subcutaneous dose 196 nmol/kg, individual animal): 33.2 h | CL/F ([1]; male, Sprague Dawley, rat, plasma, sc, 196 nmol/kg, single subcutaneous dose 196 nmol/kg, individual animal, read-out: CL/F (converted)): 5.41 mL/h/kg | Tmax ([1]; male, Sprague Dawley, rat, plasma, sc, 196 nmol/kg, single subcutaneous dose 196 nmol/kg, individual animal, read-out: Tmax): 48 h | half-life ([1]; male, Sprague Dawley, rat, plasma, sc, 196 nmol/kg, single subcutaneous dose 196 nmol/kg, mean): 42.2 h | CL/F ([1]; male, Sprague Dawley, rat, plasma, sc, 196 nmol/kg, single subcutaneous dose 196 nmol/kg, mean, read-out: CL/F (converted)): 4.85 mL/h/kg | Tmax ([1]; male, Sprague Dawley, rat, plasma, sc, 196 nmol/kg, single subcutaneous dose 196 nmol/kg, mean, read-out: Tmax): 40 h | AUC0-inf ([1]; rat, plasma, sc, single subcutaneous dose 196 nmol/kg, male Sprague Dawley rats, mean, read-out: AUC0-inf): 44.3 µM·h | Cmax ([1]; rat, plasma, sc, single subcutaneous dose 196 nmol/kg, male Sprague Dawley rats, mean, read-out: Cmax): 473 nM | AUC0-inf ([1]; rat, plasma, single intravenous dose 196 nmol/kg, male Sprague Dawley rats, mean, read-out: AUC0-inf): 80.6 µM·h | C0 ([1]; rat, plasma, single intravenous dose 196 nmol/kg, male Sprague Dawley rats, mean, read-out: C0): 2420 nM | CL [1, 10]: 2.51 mL/h/kg and 2.37 mL/h/kg | T1/2 [1, 10]: 35.8 h and 46.0 h | CL/F [1, 11]: 4.80 mL/h/kg and 4.35 mL/h/kg | T1/2 [1, 11]: 39.1 h and 54.2 h | Tmax [1, 11]: 24 h | EC50 [2]: 6.6 ± 0.8 pM | EC50 [3]: 2.3e+06 pM
Molecule: CC[C@H](C)[C@H](NC(C)=O)C(=O)N[C@H](C(=O)N[C@H](C(=O)N[C@@H](CO)C(=O)N[C@@](C)(CC(C)C)C(=O)N[C@@H](CC(=O)O)C(=O)N[C@@H](C(=O)N1CCC[C@H]1C(=O)N[C@H](C(=O)NC(C)(C)C(=O)N[C@@](C)(CC(C)C)C(=O)N[C@@H](CC(C)C)C(=O)N[C@@H](CCC(N)=O)C(=O)N[C@H](C(=O)N[C@@H](CCCCN)C(=O)N[C@@H](CC(C)C)C(=O)N[C@@H](CCC(=O)O)C(=O)N[C@@H](CCC(N)=O)C(=O)N[C@@H](CCC(=O)O)C(=O)N[C@@H](CCCNC(=N)N)C(=O)N[C@@H](C)C(=O)N[C@@H](CCC(=O)O)C(=O)N[C@@H](CCCCN)C(=O)N[C@@H](C)C(=O)N[C@@H](CCCNC(=N)N)C(=O)N[C@@H](CCC(N)=O)C(=O)N[C@@H](CCC(N)=O)C(=O)N[C@@H](C)C(=O)N[C@@H](CCCCNC(=O)COCCOCCNC(=O)COCCOCCNC(=O)CC[C@H](NC(=O)CCCCCCCCCCCCCCCCCCC(=O)O)C(=O)O)C(=O)N[C@@H](CCC(=O)O)C(=O)N[C@@H](CC(N)=O)C(=O)N[C@H](C(=O)N[C@@H](CCC(=O)O)C(=O)N[C@H](C(=O)N[C@@H](CC(C)C)C(=O)N[C@@H](C)C(=O)N[C@@H](CCC(N)=O)C(=O)N[C@H](C(N)=O)C(C)C)[C@@H](C)CC)[C@@H](C)O)[C@@H](C)CC)[C@@H](C)CC)C(C)C)[C@@H](C)O)C(C)C [SEQ ID NO: 42, Ac-IVTS αMeL D (D-Val) PI Aib αMeL LQIKLEQERAEKARQQAK((2-[2-(2-Amino-ethoxy)-ethoxy]-acetyl)2-γE-CO-(CH2)18-CO2H)ENTEILAQV-NH2] (Ac-IVTS[αMeL]D[dV]PI[Aib][αMeL]LQIKLEQERAEKARQQAK([AEEA-AEEA-γGlu-C20 diacid])ENTEILAQV-NH2)
AUC0-inf [1, 10]: 81.5 µM·h and 77.9 µM·h and 82.5 µM·h | C0 [1, 10]: 2760 nM and 2250 nM and 2260 nM | AUC0-inf [1, 11]: 38.1 µM·h and 43.2 µM·h and 51.5 µM·h | Cmax [1, 11]: 399 nM and 559 nM and 460 nM

MAPPS Assay >10 donors with diverse MHC ([4]; donors displaying MHC-II peptides / donors tested): 0/20 | MAPPS Assay >10 donors with diverse MHC ([4]; percentage of donors displaying MHC-II peptides): 0% | EC50 [2]: 9 ± 3.6 pM | EC50 [3]: 3.7e+06 pM
Molecule: γGlu-GPSIVTS[αMeL]D[dV]PI[Aib][αMeL]LQIKLEQERAEKARQQAK([AEEA-AEEA-γGlu-C20 diacid])ENTEILAQV-NH2 [SEQ ID NO: 45, γE-GPSIVTS αMeL D (D-Val) PI Aib αMeL LQIKLEQERAEKARQQAK((2-[2-(2-Amino-ethoxy)-ethoxy]-acetyl)2-γE-CO-(CH2)18-CO2H)ENTEILAQV-NH2]
peptides displayed on MHC-II complexes ([4]; human dendritic cells from normal donors): no peptides displayed on MHC-II complexes | immunogenicity compared with SEQ ID NO:54 ([4]; in the MAPPs assay and/or the T cell proliferation assay): substantial improvements in immunogenicity over a compound comprising SEQ ID NO:54

hCRHR1 cAMP EC50 [5]: > 10000 nM | A7r5 cAMP EC50 [6]: 0.967 nM | Y79 cAMP EC50 [7]: > 10000 nM
Molecule: [NMeI]VTSLDVPIG[αMeL]LQKLLEQERAEKARQQAKEAAEILAQV-NH2 (not fully specified (residue 29)) [polypeptide comprising SEQ ID NO:50]

hCRHR1 cAMP EC50 [5]: > 10000 nM | A7r5 cAMP EC50 [6]: 0.112 nM | Y79 cAMP EC50 [7]: 620 nM
B1: polypeptide comprising SEQ ID NO:25 (peptide)
peptide: [γGlu]GSPSIVTS[αMeL]DVPT[Aib][αMeL]LQKILEQERAEKARQQATEAAEILAQV-NH2
modifications: not fully specified (residue 1, N-terminus); also: Glu1 linked through its gamma-carboxyl to Gly2

hCRHR1 cAMP EC50 [5]: > 10000 nM | A7r5 cAMP EC50 [6]: 0.314 nM | Y79 cAMP EC50 [7]: 2400 nM
Molecule: [pGlu]GSPSGIVTS[αMeL]DVPT[Aib][αMeL]LQKILEQERAEKARQQAK([γGlu-AEEA-εLys-C20 diacid])EAAEILAQV-NH2 [polypeptide comprising SEQ ID NO:22]
